According to patent US4248865A, “Novel aminoglycoside derivatives” (Shionogi & Co., Ltd., priority 1978, dated 1981):
Values after ≈ are worked out from the molar mass of the structure shown.

What was measured:
[1] = system: Pseudomonas aeruginosa PP-6; assay: MIC by agar dilution method, Pseudomonas aeruginosa PP-6; conditions: PP6, read-out: Minimum Inhibitory Concentration (MIC)
Method: (§1) MIC was determined by the following agar dilution method.
(§2) One loopful of a strain of bacteria to be tested on agar slant was inoculated into a medium for growth of inoculum (Trypto Soy Broth; Eiken Chemical Co.) and incubated at 37° C. overnight.
(§3) A sample solution of aminoglycoside derivative was subjected to serial two-fold dilutions with sterile water. This diluted sample solutions were distributed to the Modified Mueller Hinton Agar medium (Nissui-seiyaku Co.), mixed gently and allowed to solidify.
(§4) One loopful of the bacterial suspension prepared in (1) was placed on the surface of the medium prepared in (2) containing the aminoglycoside derivative in various concentrations at 10^6 CFU/ml inoculum size.

[2] = system: Klebsiella pneumoniae K1-168; assay: MIC by agar dilution method, Klebsiella pneumoniae K1-168; conditions: K1168, read-out: Minimum Inhibitory Concentration (MIC)
Method: as §1, §2, §3, §4

[3] = system: Escherichia coli W-677/JR 762; assay: MIC by agar dilution method, Escherichia coli W-677/JR 762; conditions: W677/JR762, read-out: Minimum Inhibitory Concentration (MIC)
Method: as §1, §2, §3, §4

SMILES	MIC [1] [mg/L]	MIC [2] [mg/L]	MIC [3] [mg/L]
NC[C@H]1O[C@H](O[C@H]2[C@H](O)[C@@H](O[C@H]3O[C@H](CO)[C@@H](O)[C@H](N)[C@H]3O)[C@H](N)C[C@@H]2N)[C@H](N)C[C@@H]1O [TOB, tobramycin, reference compound]	> 100	100 (≈ 214 µM)	50 (≈ 107 µM)
NC[C@H]1O[C@H](O[C@H]2[C@H](O)[C@@H](O[C@H]3O[C@H](CO)[C@@H](O)[C@H](N)[C@H]3O)[C@H](NC3=NCC[C@@H]3O)C[C@@H]2N)[C@H](N)C[C@@H]1O [[A], 1N-[(S)(-)-3-hydroxy-1-pyrrolin-2-yl]tobramycin]	3.1 (≈ 5.63 µM)	3.1 (≈ 5.63 µM)	12.5 (≈ 22.7 µM)
NC[C@H]1O[C@H](O[C@H]2[C@H](O)[C@@H](O[C@H]3O[C@H](CO)[C@@H](O)[C@H](N)[C@H]3O)[C@H](NC3=NCCC[C@@H]3O)C[C@@H]2N)[C@H](N)C[C@@H]1O [[B], 1N-[(S)(-)-3-hydroxy-3,4,5,6-tetrahydropyridin-2-yl]tobramycin]	6.2 (≈ 11 µM)	3.1 (≈ 5.49 µM)	12.5 (≈ 22.1 µM)
